# Test results published in patent EP0394553A2, “Use of fluorine containing pyridone carboxylic acid derivatives for preparing a medicament for the treatment of HIV infections” (DAIICHI PHARMACEUTICAL CO., LTD., priority 1989, dated 1990).
# Where two headings read alike, the source gives them in different places.
# System: HIV (LAV 1)
# Test: microbe, parasite or virus in culture
# Conditions: for Viable cell count / Viral antigen-positive cell percentage: 4-day addition; for viability at 1 µg/mL / viability at 10 µg/mL: Human immunodeficiency virus 1, CCRF-CEM
# Procedure: Human T cell-derived, T4 antigen-positive CEM cells (provided by the Institut Pasteur, France) were used as host cells of HIV. Cell culture was carried out in a carbon dioxide-containing atmosphere in an incubator maintained at 37°C according to a conventional method [cf. […] The culture supernatant (5×10⁶ TCID₅₀/ml) obtained by subjecting CEM cells to HIV (LAV 1) infection and stored at -70°C was used as the HIV source.
# The medium for cell culture (10 ml) placed in a plastic culture flask (25 cm²) was inoculated with CEM cells at a cell density of 2.5×10⁵ cells/ml. After 3 days of incubation, the culture was transferred to a 15-ml centrifuge tube and subjected to centrifugation at 1,000 revolutions per minute for 5 minutes for sedimentation of cells and removal of the culture medium.
# The stock viral suspension was added to the host cells thus prepared to an MOI of 0.05 and the mixture was maintained at 37°C for 90 minutes with stirring at 30-minute intervals for viral adsorption. The medium was added to HIV-infected cells to a cell density of 5.0×10⁵ cells/ml to give an HIV-infected cell suspension.
# A mixture (1.0 ml) of the three constituents mentioned below was added to each well of a 24-well plastic culture plate and the test substance final concentration was adjusted to 10 mcg/ml, 5 mcg/ml, 2.5 mcg/ml or 1 mcg/ml. The "no addition" wells (0 mcg/ml) served as controls.
# After 4 days of incubation following viral infection, the cells in each well on the 24-well culture plate were suspended uniformly by pipetting and a 0.5-ml portion of the suspension was separated. A 2.0-ml portion of test substance-free fresh medium was added to the remaining 0.5-ml portion of the cell suspension, followed by incubation.
# Seven days after viral infection, pipetting was performed to give a uniform cell suspension in each well and a 0.5-ml portion of the suspension was separated.
# Incubation was continued and, 10 days after viral infection, a uniform cell suspension was produced in the same manner in each well and a 1.5-ml portion thereof was separated. A fresh 2.0-ml portion of the medium free of (or containing) the test substance was added to the well, followed by further incubation.
# Fifteen days after viral infection, the cells in each well were suspended uniformly in the same manner in the medium and a 2.0-ml portion of the suspension was separated. A fresh 2.0-ml portion of the medium free of (or containing) the test substance was added to the remaining 0.5 ml of the cell suspension and incubation was continued.
# Medium exchange was performed in the same manner 20 days and 25 days after viral infection.
# The cell suspensions collected 4 days, 7 days, 10 days, 20 days and 30 days after viral infection were tested for viable cell count and viable cell percentage by trypan blue staining. At the same time, viral antigen-positive cell percentage determination was carried out by immunofluorescence using an anti-HIV antiserum isolated from a healthy carrier of HIV.
# The numerical values given each is the mean for the respective two wells on the culture plate. The viable cell count is the total cell count minus the count of dead cells stained with trypan blue. The viable cell percentage is the percentage of viable cells among all the cells including dead cells. The viral antigen-positive cell percentage is the percentage of cells indicating antigen expression as found among all the cells including dead cells.
# [1] = 96 h, read-out: Viable cell percentage, 1 mcg/ml, 4-day addition, after 4 days
# [2] = 96 h, read-out: Viable cell percentage, 10 mcg/ml, 4-day addition, after 4 days
# [3] = read-out: Viable cell percentage, 1 mcg/ml, 4-day addition, after 7 days
# [4] = read-out: Viable cell percentage, 1 mcg/ml, 4-day addition, after 10 days
# [5] = read-out: Viable cell percentage, 1 mcg/ml, 4-day addition, after 20 days
# [6] = read-out: Viable cell percentage, 1 mcg/ml, 4-day addition, after 30 days
# [7] = read-out: Viable cell percentage, 10 mcg/ml, 4-day addition, after 7 days
# [8] = read-out: Viable cell percentage, 10 mcg/ml, 4-day addition, after 10 days
# [9] = read-out: Viable cell percentage, 10 mcg/ml, 4-day addition, after 20 days
# [10] = read-out: Viable cell percentage, 10 mcg/ml, 4-day addition, after 30 days
structure (smiles),measurement,setting,value
"CCN1CCN(c2c(F)cc3c(=O)c(C(=O)O)cn4c3c2OCC4C)CC1 (racemic) [IIIa, (±)-9-Fluoro-3-methyl-10-(4-ethyl-1-piperazinyl)-7-oxo-2,3-dihydro-7H-pyrido[1,2,3-de][1,4]benzoxazine-6-carboxylic acid]",Viable cell count,"1 mcg/ml, after 4 days",240 × 10⁴ cells/ml
same,Viral antigen-positive cell percentage,"1 mcg/ml, after 4 days",72%
same,Viable cell count,"1 mcg/ml, after 7 days",37 × 10⁴ cells/ml
same,Viral antigen-positive cell percentage,"1 mcg/ml, after 7 days",65%
same,Viable cell count,"1 mcg/ml, after 10 days",19 × 10⁴ cells/ml
same,Viral antigen-positive cell percentage,"1 mcg/ml, after 10 days",30%
same,Viable cell count,"1 mcg/ml, after 20 days",20 × 10⁴ cells/ml
same,Viral antigen-positive cell percentage,"1 mcg/ml, after 20 days",20%
same,Viable cell count,"1 mcg/ml, after 30 days",14 × 10⁴ cells/ml
same,Viable cell count,"10 mcg/ml, after 4 days",180 × 10⁴ cells/ml
same,Viral antigen-positive cell percentage,"10 mcg/ml, after 4 days",82%
same,Viable cell count,"10 mcg/ml, after 7 days",61 × 10⁴ cells/ml
same,Viral antigen-positive cell percentage,"10 mcg/ml, after 7 days",75%
same,Viable cell count,"10 mcg/ml, after 10 days",260 × 10⁴ cells/ml
same,Viral antigen-positive cell percentage,"10 mcg/ml, after 10 days",26%
same,Viable cell count,"10 mcg/ml, after 20 days",310 × 10⁴ cells/ml
same,Viral antigen-positive cell percentage,"10 mcg/ml, after 20 days",18%
same,Viable cell count,"10 mcg/ml, after 30 days",330 × 10⁴ cells/ml
same,Viral antigen-positive cell percentage,"10 mcg/ml, after 30 days",6%
same,viability at 1 µg/mL,[1],92%
same,viability at 10 µg/mL,[2],88%
same,viability at 1 µg/mL,[3],57%
same,viability at 1 µg/mL,[4],30%
same,viability at 1 µg/mL,[5],78%
same,viability at 1 µg/mL,[6],40%
same,viability at 10 µg/mL,[7],74%
same,viability at 10 µg/mL,[8],93%
same,viability at 10 µg/mL,[9],91%
same,viability at 10 µg/mL,[10],94%
"CCCN1CCN(c2c(F)cc3c(=O)c(C(=O)O)cn4c3c2OCC4C)CC1 (racemic) [IIIb, (±)-9-Fluoro-3-methyl-10-(4-n-propyl-1-piperazinyl)-7-oxo-2,3-dihydro-7H-pyrido[1,2,3-de][1,4]benzoxazine-6-carboxylic acid]",Viable cell count,"1 mcg/ml, after 4 days",220 × 10⁴ cells/ml
same,Viral antigen-positive cell percentage,"1 mcg/ml, after 4 days",88%
same,Viable cell count,"1 mcg/ml, after 7 days",53 × 10⁴ cells/ml
same,Viral antigen-positive cell percentage,"1 mcg/ml, after 7 days",62%
same,Viable cell count,"1 mcg/ml, after 10 days",19 × 10⁴ cells/ml
same,Viable cell count,"1 mcg/ml, after 20 days",25 × 10⁴ cells/ml
same,Viable cell count,"1 mcg/ml, after 30 days",14 × 10⁴ cells/ml
same,Viable cell count,"10 mcg/ml, after 4 days",190 × 10⁴ cells/ml
same,Viral antigen-positive cell percentage,"10 mcg/ml, after 4 days",80%
same,Viable cell count,"10 mcg/ml, after 7 days",62 × 10⁴ cells/ml
same,Viral antigen-positive cell percentage,"10 mcg/ml, after 7 days",50%
same,Viable cell count,"10 mcg/ml, after 10 days",240 × 10⁴ cells/ml
same,Viral antigen-positive cell percentage,"10 mcg/ml, after 10 days",40%
same,Viable cell count,"10 mcg/ml, after 20 days",320 × 10⁴ cells/ml
same,Viral antigen-positive cell percentage,"10 mcg/ml, after 20 days",13%
same,Viable cell count,"10 mcg/ml, after 30 days",300 × 10⁴ cells/ml
same,Viral antigen-positive cell percentage,"10 mcg/ml, after 30 days",4%
same,viability at 1 µg/mL,[1],89%
same,viability at 10 µg/mL,[2],89%
same,viability at 1 µg/mL,[3],75%
same,viability at 1 µg/mL,[4],27%
same,viability at 1 µg/mL,[5],81%
same,viability at 1 µg/mL,[6],36%
same,viability at 10 µg/mL,[7],70%
same,viability at 10 µg/mL,[8],83%
same,viability at 10 µg/mL,[9],92%
same,viability at 10 µg/mL,[10],94%
"CCCCN1CCN(c2c(F)cc3c(=O)c(C(=O)O)cn4c3c2OCC4C)CC1 (racemic) [IIIc, (±)-9-Fluoro-3-methyl-10-(4-n-butyl-1-piperazinyl)-7-oxo-2,3-dihydro-7H-pyrido[1,2,3-de][1,4]benzoxazine-6-carboxylic acid]",Viable cell count,"1 mcg/ml, after 4 days",220 × 10⁴ cells/ml
same,Viral antigen-positive cell percentage,"1 mcg/ml, after 4 days",82%
same,Viable cell count,"1 mcg/ml, after 7 days",46 × 10⁴ cells/ml
same,Viral antigen-positive cell percentage,"1 mcg/ml, after 7 days",70%
same,Viable cell count,"1 mcg/ml, after 10 days",28 × 10⁴ cells/ml
same,Viable cell count,"1 mcg/ml, after 20 days",10 × 10⁴ cells/ml
same,Viable cell count,"1 mcg/ml, after 30 days",10 × 10⁴ cells/ml
same,Viable cell count,"10 mcg/ml, after 4 days",200 × 10⁴ cells/ml
same,Viral antigen-positive cell percentage,"10 mcg/ml, after 4 days",80%
same,Viable cell count,"10 mcg/ml, after 7 days",51 × 10⁴ cells/ml
same,Viral antigen-positive cell percentage,"10 mcg/ml, after 7 days",47%
same,Viable cell count,"10 mcg/ml, after 10 days",250 × 10⁴ cells/ml
same,Viral antigen-positive cell percentage,"10 mcg/ml, after 10 days",9%
same,Viable cell count,"10 mcg/ml, after 20 days",340 × 10⁴ cells/ml
same,Viral antigen-positive cell percentage,"10 mcg/ml, after 20 days",9%
same,Viable cell count,"10 mcg/ml, after 30 days",320 × 10⁴ cells/ml
same,Viral antigen-positive cell percentage,"10 mcg/ml, after 30 days",3%
same,viability at 1 µg/mL,[1],87%
same,viability at 10 µg/mL,[2],92%
same,viability at 1 µg/mL,[3],60%
same,viability at 1 µg/mL,[4],33%
same,viability at 1 µg/mL,[5],55%
same,viability at 1 µg/mL,[6],32%
same,viability at 10 µg/mL,[7],67%
same,viability at 10 µg/mL,[8],93%
same,viability at 10 µg/mL,[9],93%
same,viability at 10 µg/mL,[10],95%
"CC(C)N1CCN(c2c(F)cc3c(=O)c(C(=O)O)cn4c3c2OCC4C)CC1 (racemic) [IIId, (±)-9-Fluoro-3-methyl-10-(4-isopropyl-1-piperazinyl)-7-oxo-2,3-dihydro-7H-pyrido[1,2,3-de][1,4]benzoxazine-6-carboxylic acid]",Viable cell count,"1 mcg/ml, after 4 days",250 × 10⁴ cells/ml
same,Viral antigen-positive cell percentage,"1 mcg/ml, after 4 days",72%
same,Viable cell count,"1 mcg/ml, after 7 days",50 × 10⁴ cells/ml
same,Viral antigen-positive cell percentage,"1 mcg/ml, after 7 days",70%
same,Viable cell count,"1 mcg/ml, after 10 days",24 × 10⁴ cells/ml
same,Viable cell count,"1 mcg/ml, after 20 days",12 × 10⁴ cells/ml
same,Viable cell count,"1 mcg/ml, after 30 days",9 × 10⁴ cells/ml
same,Viable cell count,"10 mcg/ml, after 4 days",190 × 10⁴ cells/ml
same,Viral antigen-positive cell percentage,"10 mcg/ml, after 4 days",78%
same,Viable cell count,"10 mcg/ml, after 7 days",60 × 10⁴ cells/ml
same,Viral antigen-positive cell percentage,"10 mcg/ml, after 7 days",50%
same,Viable cell count,"10 mcg/ml, after 10 days",280 × 10⁴ cells/ml
same,Viral antigen-positive cell percentage,"10 mcg/ml, after 10 days",25%
same,Viable cell count,"10 mcg/ml, after 20 days",290 × 10⁴ cells/ml
same,Viral antigen-positive cell percentage,"10 mcg/ml, after 20 days",11%
same,Viable cell count,"10 mcg/ml, after 30 days",300 × 10⁴ cells/ml
same,Viral antigen-positive cell percentage,"10 mcg/ml, after 30 days",4%
same,viability at 1 µg/mL,[1],91%
same,viability at 10 µg/mL,[2],88%
same,viability at 1 µg/mL,[3],62%
same,viability at 1 µg/mL,[4],28%
same,viability at 1 µg/mL,[5],60%
same,viability at 1 µg/mL,[6],31%
same,viability at 10 µg/mL,[7],67%
same,viability at 10 µg/mL,[8],91%
same,viability at 10 µg/mL,[9],95%
same,viability at 10 µg/mL,[10],94%
